Data on 45 compounds can be found in US11540539B2, “Reduced sodium food products” (GENERAL MILLS, INC., priority 2013, dated 2023).

Assay [1] relates to perception of saltiness. Briefly: Broth DAP test: trained panel rates saltiness of compounds in simple broth. The note with it: individual compounds in simple broth; DAP score greater than 7.6 indicates saltiness or salt enhancement. Type of assay: in vivo. On the procedure:
(§1) Briefly, each individual tested compound was placed in water and in sodium solution to test saltiness and saltiness enhancement potential. Tests in water were executed in a compound concentration of 10 ppm. Tests in sodium solution were executed in compound concentrations of 0.1, 1 and 10 ppm. Two control sodium solutions with known organoleptic salt intensities were provided as references for each test. The test for individual compounds was also conducted using simple broth instead of sodium solution. A number of compound combinations identified from the Na-solution DAP test were used for the broth DAP test. Tests were executed with a trained panel of 9-12 assessors. For Na-solution DAP tests, a DAP score of greater than 3.1 indicates saltiness or salt enhancement. The DAP score can be correlated with a sodium reduction potential by subtracting 3.1 from the DAP score.

Assay [2] relates to perception of saltiness. Briefly: Na-solution DAP test: trained panel rates saltiness of compounds in sodium solution. It counts as in vivo. The note with it: individual compounds in sodium solution; compound concentrations of 0.1, 1 and 10 ppm; DAP score greater than 3.1 indicates saltiness or salt enhancement. On the procedure:
as §1

As to `CCCCCCCCCCC[C@@H](O)CC(=O)CCc1ccc(O)c(OC)c1` [Compound 1], the “DAP in Broth” value with perception of saltiness [1] worked out at 7.8.
Turning to `CCCCCCCCC/C=C/C(=O)CCc1ccc(O)c(OC)c1` [Compound 2], the “DAP in Broth” value in the assay on perception of saltiness [1] is on record as 7.8.
Still for that read-out and setting: next, `CCCCCC(CC(CCc1ccc(O)c(OC)c1)OC(C)=O)OC(C)=O` (stereo not drawn) [Compound 3]: 8.8.
On the same count and under the same terms, with `CCC/C=C\C/C=C\CCCC/C=C\Cc1cc(O)cc(O)c1` [Compound 10] the figure was 7.9.
As for `COc1cc(CC/C=C/C(=O)CCc2ccccc2)ccc1O` [Compound 11], the “DAP in Broth” value in the assay on perception of saltiness [1] came to 8.1.
On the same count and under the same terms, next, `COc1cc(CCC(O)CC(=O)CCc2ccccc2)ccc1O` (stereo not drawn) [Compound 12]: 7.6.
In the case of `COc1cc(COC(=O)CCCC/C=C/C(C)C)ccc1O` [Compound 13], the “DAP in Broth” value with perception of saltiness [1] is on record as 7.9.
Take `CC(C)CNC(=O)/C=C/C=C/CCCCCC/C=C/c1ccc2c(c1)OCO2` [Compound 15]: in the assay with perception of saltiness [2], the “DAP in Na-Sol.” value was determined as 3.5. Moreover, in the assay on perception of saltiness [1], the “DAP in Broth” value stood at 8.1.
For `CCCCC/C=C\CCCCCCc1cc(=O)c2ccccc2n1C` [Compound 16], in the assay with perception of saltiness [1], the “DAP in Broth” value was 8.0.
Take `O=C(/C=C/C=C/c1ccc2c(c1)OCO2)N1CCCCC1` [Compound 18]: the “DAP in Broth” value with perception of saltiness [1] is recorded as 8.1.
For `COc1cc(CNC(=O)CCCCCCC(C)C)ccc1O` [Compound 21], in the assay with perception of saltiness [2], the “DAP in Na-Sol.” value was found to be 4.
On the same count and under the same terms, with `COc1cc2oc(=O)ccc2c(OC)c1CC=C(C)C` [Compound 28] the figure was 3.6.
On to `C=CC(C)(O)CCC1(C)C2=C(C(OC(C)=O)C(OC(C)=O)C1C)C(C)(C)CCC2` (stereo not drawn) [Compound 29], for which the “DAP in Broth” value in the assay with perception of saltiness [1] is on record as 8.0.
With `C=C[C@@]1(C)CC(=O)C2[C@]3(C)C(C[C@@H](O)[C@@]2(O)C1=O)C(C)(C)[C@H](OC(C)=O)[C@H](OC(C)=O)[C@@H]3OC(=O)c1ccccc1` (stereo partly drawn) [Compound 32], the “DAP in Broth” value in the assay on perception of saltiness [1] is recorded as 8.1.
On the same count and under the same terms, next, `C/C=C(\C)C(=O)O[C@H]1[C@H](O)[C@]2(CO)[C@H](O)C[C@]3(C)C(=CCC4[C@@]5(C)CC[C@H](O[C@@H]6O[C@H](C(=O)O)[C@@H](O[C@@H]7O[C@H](CO)[C@@H](O)[C@H](O)[C@H]7O)[C@H](O)[C@H]6O[C@@H]6O[C@H](CO)[C@@H](O)[C@H](O)[C@H]6O)[C@](C)(CO)C5CC[C@]43C)[C@@H]2CC1(C)C` (stereo partly drawn) [Compound 34]: 7.7.
As to `C=CC(C)(O)CC/C=C(\C)C(=O)OC1C(OCC2OC(OC(=O)C34CCC(C)(C)CC3C3=CCC5C6(C)CCC(OC7OC(COC8OCC(O)C(O)C8OC8OCC(O)C(O)C8O)C(O)C(O)C7O)C(C)(C)C6CCC5(C)C3(C)CC4O)C(OC3OC(C)C(OC4OCC(O)C(OC5OCC(O)C(O)C5O)C4O)C(O)C3O)C(OC(=O)/C(C)=C/CCC(C)(O)C=C)C2O)OC(C)C(O)C1O` (stereo not drawn) [Compound 35], the “DAP in Na-Sol.” value in the assay on perception of saltiness [2] was determined as 3.7. Besides, the “DAP in Broth” value with perception of saltiness [1] is 8.1.
Take `CC1CCC2(OC1)OC1CC3C4CCC5CC(OC6OC(CO)C(OC7OC(CO)C(O)C(OC8OC(CO)C(O)C(OC9OCC(O)C(O)C9O)C8O)C7O)C(OC7OCC(O)C(O)C7O)C6O)CCC5(C)C4CC(=O)C3(C)C1C2C` (stereo not drawn) [Compound 37]: the “DAP in Na-Sol.” value in the assay with perception of saltiness [2] came to 3.7. The “DAP in Broth” value in the assay on perception of saltiness [1] amounted to 8.1.
For `CC(=O)OC1C(O)COC(OC2C(O)C(C)OC(OC(C)(CCC=C(C)C)C3C(O)CC4(C)C3CCC3C5(C)CCC(OC6OCC(O)C(O)C6O)C(C)(C)C5CCC34C)C2O)C1O` (stereo not drawn) [Compound 38], in that order: 3.9 and 8.1.
For `CC1(C)CC[C@]2(C(=O)O)CC[C@]3(C)C(=CCC4[C@@]5(C)C[C@@H](O)[C@H](O)C(C)(C)C5CC[C@]43C)C2C1` (stereo partly drawn) [Compound 42], in that order: 3.1 and 8.1.
Consider `C[C@H]1[C@H](C)CC[C@]2(C(=O)O)CC[C@]3(C)C(=CC[C@@H]4[C@@]5(C)CC[C@H](O)C(C)(C)[C@@H]5CC[C@]43C)[C@H]12` [Compound 43], for which the “DAP in Broth” value in the assay on perception of saltiness [1] is 8.0.
`COc1cc2c(c(OC)c1OC)-c1c(cc3c(c1OC)OCO3)C[C@H](C)[C@@](C)(O)C2` [Compound 44]: in the assay on perception of saltiness [2], the “DAP in Na-Sol.” value stood at 3.8. Further, the “DAP in Broth” value in the assay with perception of saltiness [1] was found to be 8.6.
As to `COc1cc2c(c(OC)c1OC)-c1c(cc(OC)c(OC)c1OC)C[C@H](C)[C@H](C)C2` [Compound 45], the “DAP in Broth” value with perception of saltiness [1] worked out at 8.2.
Turning to `COc1cc2c(c(OC)c1OC)-c1c(cc3c(c1OC)OCO3)CC(C)C(C)C2` (stereo not drawn) [Compound 46], the “DAP in Broth” value in the assay on perception of saltiness [1] worked out at 7.8.
Still for that read-out and setting: next, `COc1cc(CC(C)C(C)Cc2ccc(O)c(OC)c2)ccc1O` (stereo not drawn) [Compound 49]: 8.2; `COc1cc(O)c(C(C)=O)c(OC)c1` [Compound 53]: 8.5.
For the compound `COc1cc(C2c3cc4c(cc3CC3COC(=O)C32)OCO4)cc(OC)c1OC` (stereo not drawn) [Compound 59], in the assay with perception of saltiness [2], the “DAP in Na-Sol.” value is on record as 3.3. Moreover, the “DAP in Broth” value with perception of saltiness [1] worked out at 7.9.
For `CC(C)C(=O)c1c2c(c3oc(=O)cc(-c4ccccc4)c3c1O)CC(C(C)(C)O)O2` (stereo not drawn) [Compound 60], in that order: 3.8 and 8.1.
For `COc1c2ccoc2cc2oc(=O)ccc12` [Compound 62], in that order: 3.9 and 78.0.
Consider `CC(C)(O)C(O)COc1c2ccoc2cc2oc(=O)ccc12` (stereo not drawn) [Compound 63], for which, in the assay with perception of saltiness [1], the “DAP in Broth” value was found to be 8.0.
On to `CC(C)=CCOc1c2occc2cc2ccc(=O)oc12` [Compound 64], for which the “DAP in Na-Sol.” value in the assay with perception of saltiness [2] amounted to 3.7. The “DAP in Broth” value in the assay on perception of saltiness [1] turned out to be 7.8.
The matching figures for `COc1c2ccoc2c(OCC=C(C)C)c2oc(=O)ccc12` [Compound 65]: 3.3 and 7.9.
Consider `CC(=O)OC1CCC2(C)C(COc3ccc4ccc(=O)oc4c3)C(C)(O)CCC2C1(C)C` (stereo not drawn) [Compound 66], for which the “DAP in Na-Sol.” value with perception of saltiness [2] worked out at 3.2. For the same compound, in the assay on perception of saltiness [1], the “DAP in Broth” value came to 7.8.
For `C[C@]12CC[C@H](O)C[C@H]1CC[C@@H]1[C@@H]2CC[C@]2(C)[C@@H](C3=CC(=O)OC3)CC[C@]12O` [Compound 73], in that order: 3.5 and 8.0.
For `CC(=O)O[C@@H]1CC2C(C)(C)C(=O)C=C[C@]2(C)C2CC[C@]3(C)C(=CC(=O)C3c3ccoc3)[C@@]21C` (stereo partly drawn) [Compound 74], in that order: 3.2 and 7.7.
On to `C/C=C1\C(=O)CC2C3CCC4=CC(=O)CCC4(C)C3CCC12C` (stereo not drawn) [Compound 75], for which, in the assay with perception of saltiness [2], the “DAP in Na-Sol.” value is 3.6.
On to `COC1CC(OC2CCC3(C=O)C(CCC4C3CCC3(C)C(C5=CC(=O)OC5)CCC43O)C2)OC(C)C1OC1OC(CO)C(O)C(O)C1O` (stereo not drawn) [Compound 76], for which, in the assay with perception of saltiness [2], the “DAP in Na-Sol.” value came out at 3.2. The “DAP in Broth” value in the assay with perception of saltiness [1] is reported as 8.0.
For `COC1CC(OC2CCC3(C=O)C(CCC4C3CCC3(C)C(C5=CC(=O)OC5)CCC43O)C2)OC(C)C1O` (stereo not drawn) [Compound 77], in that order: 3.4 and 8.1.
The matching figures for `C=CCCCCCCC(C(=O)O)C(O)CC(=O)O` (stereo not drawn) [Compound 81]: 3.2 and 7.8.
As for `C=CCCCCCCCCCCC[C@H](O)C[C@H](O)CO` [Compound 82], the “DAP in Na-Sol.” value in the assay with perception of saltiness [2] came to 3.8. Also, the “DAP in Broth” value with perception of saltiness [1] stood at 8.3.
As for `C=CCCCCCCCCCCCC(CC(O)COC(C)=O)OC(C)=O` (stereo not drawn) [Compound 83], the “DAP in Na-Sol.” value in the assay with perception of saltiness [2] was 4.2. For the same compound, the “DAP in Broth” value in the assay on perception of saltiness [1] is on record as 8.1.
For `CCCCCCCCCCNC(C)=O` [Compound 84], in that order: 3.8 and 8.1.
For the compound `CC/C=C\C/C=C\C=C\[C@H](O)CCCCCCCC(=O)O` [Compound 85], the “DAP in Na-Sol.” value in the assay on perception of saltiness [2] is on record as 2.9.
As to `CC/C=C\C=C\C(O)C/C=C\CCCCCCCC(=O)O` (stereo not drawn) [Compound 86], in the assay on perception of saltiness [2], the “DAP in Na-Sol.” value was determined as 3.9. The “DAP in Broth” value in the assay with perception of saltiness [1] is 8.0.
As to `CCCCCCCC/C=C/C(O)CCCCCCC(=O)OCC(O)CO` (stereo not drawn) [Compound 87], in the assay with perception of saltiness [1], the “DAP in Broth” value worked out at 8.0.
Still for that read-out and setting: next, `CCCCC/C=C/C=C/C(O)CCCCCCCC(=O)O` (stereo not drawn) [Compound 88]: 8.0.
